{
  "source": "patent US5318971A",
  "about": "“3-Substituted-1-aryl-2(1H)-quinolones useful as anti-allergy and anti-inflammatory agents” (Schering Corporation, priority 1991, dated 1994)",
  "key": {"rat pleural cavity": {"tested_on": "rat pleural cavity", "experiment": "Reverse Passive Arthus Pleurisy Reaction (RPAPR), pleural exudate cells and fluid", "format": "in vivo", "settings": "po; for inhibition in vivo at 10 mg/kg: 10 mg/kg p.o.; for inhibition in vivo at 25 mg/kg: 25 mg/kg p.o.; for inhibition in vivo at 5 mg/kg: 5 mg/kg p.o.", "description": "(§1) RPAPR was produced by a modification of the Yamamoto et al. method (Agents and Actions 5: 374-377, 1975). Thirty (30) minutes prior to lightly anesthesizing rats with ether and then sensitizing them by injecting the animals i.v. with 0.33 mg of bovine serum albumin (BSA) dissolved in 0.2 ml sterile saline, a test compound was administered per os (p.o.) as indicated in Table 1. Thirty minutes later, the rats were again lightly anesthetized and challenged intrapleurally with a rabbit anti-BSA antibody (Organon), containing 1.2 mg antibody protein, dissolved in 0.2 ml sterile saline. Four hours after challenge the rats were sacrificed by CO2 inhalation, their pleural cavities exposed and the exudate harvested. The total volumes of each exudate was recorded and the total number of leukocytes determined using a Coulter Counter ZM."}, "[1]": {"tested_on": "SRS-A (leukotriene) release, guinea pig lung", "experiment": "SRSA Release in vitro (leukotriene release from sensitized guinea pig lung fragments)", "format": "cell-based", "settings": "Cavia porcellus, ovalbumin challenge, read-out: SRSA Release in vitro % l", "description": "First, kill sensitized guinea pigs by a blow to the head, remove the lungs and clean them of visible connective tissue, trachea and large blood vessels. Slice the lungs from individual animals into fragments approximately 1 mm in thickness using a Mcllwain tissue chopper and wash them with oxygenated Tyrode's buffer. Transfer weighted allquots (approximately 400 mg wet weight) of lung into vials containing 2 ml of fresh Tyrode's solution (containing 10 mM cysteine) and incubate in the presence or absence of test compound for 12 minutes at 37° C., challenge the tissues with 20 μg ovalbumin/ml (final concentration) and incubate for 15 minutes.\nTo measure leukotriene release, extract an aliquot of supernatant fluid with 4 volumes of 100% ethanol. After removal of the precipitated protein, dry the clear fluid under a stream of N2 gas. Measure the leukotriene content by a radioimmunoassay using [^3 H]LTC4 (leukotriene C4) and antiserum obtained from New England Nuclear. Calculate percent inhibition of leukotriene release by comparing for each lung the release in the presence of the test compound to that in the absence of test compound."}, "[2]": {"tested_on": "antigen-induced SRS-A mediated bronchoconstriction", "experiment": "Guinea Pig Bronchospasm (anaphylactic bronchospasm in sensitized guinea pigs)", "format": "in vivo", "settings": "5 mg/kg p.o., ovalbumin aerosol challenge", "description": "The anti-allergy activity of the compounds of this invention is identified by tests which measure a compound's inhibition of anaphylactic bronchospasms in sensitized guinea pigs having antigen-induced SRS-A mediated bronchoconstriction. Allergic bronchospasms were measured in actively sensitized guinea pigs by a modification of the procedure of Konzett and Rossler, Arch. Expt. Pathol. Pharmakol., 194, pp. 71-74 (1940). Male Hartly guinea pigs were sensitized with 5 mg ovalbumin injected ip and 5 mg injected sc in 1 ml saline on day 1 and 5 mg ovalbumin injected ip on day 4. To measure anaphylactic bronchospasm, sensitized guinea pigs were fasted overnight and the following morning were anesthetized with 0.9 mL/kg ip dialurethane. The trachea and jugular vein were cannulated and the animals were ventilated by a Harvard rodent respirator. A side arm to the tracheal cannula was connected to a Harvard pressure transducer to obtain a continuous measure of intratracheal pressure. An increase in intratracheal pressure was taken as a measure of bronchoconstriction. Each guinea pig was injected i.v. with 1 mg/kg propranolol, 5 mg/kg indomethacin and 2 mg/kg mepyramine given together in a volume of 1 mL/kg. […] Bronchoconstriction was measured as the peak increase in intratracheal pressure occurring within 15 minutes after antigen challenge."}, "TXB2 (Thromboxane B2)": {"tested_on": "TXB2 (Thromboxane B2)", "experiment": "Reverse Passive Arthus Pleurisy Reaction (RPAPR), TxB2 in pleural exudate", "format": "in vivo", "settings": "rat, 25 mg/kg p.o.; radioimmunoassay of exudate", "description": "as §1\n(§2) The exudate were then centrifuged and the supernatants decanted. Four volumes of cold 95% acetone was added for each volume of exudate. One half hour later the samples were again centrifuged for 10 minutes. Immediately after, 5 ml of the supernatant was removed and dried under nitrogen. These samples were kept in a freezer until LTE4 and TxB2 were determined using a radioimmune assay kit from Amersham.\nTXB2 = Thromboxane B2 a measure of cyclooxygenase (CO) derived\n(§3) mediators of inflammation."}, "LTE4 (Leukotriene E4)": {"tested_on": "LTE4 (Leukotriene E4)", "experiment": "Reverse Passive Arthus Pleurisy Reaction (RPAPR), LTE4 in pleural exudate", "format": "in vivo", "settings": "rat, 25 mg/kg p.o.; radioimmunoassay of exudate", "description": "as §1, §2\nLTE4 = Leukotriene E4 a measure of lipoxygenase (LO) derived\nas §3"}, "[3]": {"settings": "Leukocyte, leukocytes in exudate 4 h after challenge, read-out: % Inhibition Cells"}, "[4]": {"settings": "exudate volume 4 h after challenge, read-out: % Inhibition Fluid"}},
  "note": "Read-outs that look alike come from different tables or passages of the source.",
  "data": [
    {"compound": "O=c1c(Cn2cnnn2)cc2ccccc2n1-c1ccccc1", "note": "[Formula 3]", "values": [
      {"measurement": "inhibition in vivo at 10 mg/kg", "setting": "rat pleural cavity; [3]", "value": 75, "unit": "%"},
      {"measurement": "inhibition in vivo at 10 mg/kg", "setting": "rat pleural cavity; [4]", "value": 50, "unit": "%"},
      {"measurement": "inhibition at 30 µM", "setting": "[1]", "value": 83, "unit": "%"}
    ]},
    {"compound": "O=c1c(Cn2cncn2)cc2ccccc2n1-c1ccc(Cl)cc1", "note": "[Formula 53]", "values": [
      {"measurement": "inhibition in vivo at 25 mg/kg", "setting": "rat pleural cavity; [3]", "value": "< 10", "unit": "%"},
      {"measurement": "inhibition in vivo at 25 mg/kg", "setting": "rat pleural cavity; [4]", "value": 18, "unit": "%"},
      {"measurement": "inhibition at 30 µM", "setting": "[1]", "value": 76, "unit": "%"},
      {"measurement": "G.P. Bronchospasm % l", "setting": "[2]", "value": 18, "unit": "%"}
    ]},
    {"compound": "CC(=O)NCc1cc2ccccc2n(-c2ccccc2)c1=O", "note": "[Formula 58]", "values": [
      {"measurement": "inhibition in vivo at 25 mg/kg", "setting": "rat pleural cavity; [3]", "value": 62, "unit": "%"},
      {"measurement": "inhibition in vivo at 25 mg/kg", "setting": "rat pleural cavity; [4]", "value": 53, "unit": "%"}
    ]},
    {"compound": "CCc1nccn1Cc1cc2ccccc2n(-c2ccccc2)c1=O", "note": "[Formula 50]", "values": [
      {"measurement": "inhibition in vivo at 25 mg/kg", "setting": "rat pleural cavity; [3]", "value": "< 10", "unit": "%"},
      {"measurement": "inhibition in vivo at 25 mg/kg", "setting": "rat pleural cavity; [4]", "value": "< 10", "unit": "%"}
    ]},
    {"compound": "C[S+]([O-])Cc1cc2ccccc2n(Cc2ccccc2)c1=O", "note": "(stereo not shown) [Formula 51]", "values": [
      {"measurement": "inhibition in vivo at 25 mg/kg", "setting": "rat pleural cavity; [3]", "value": 22, "unit": "%"},
      {"measurement": "inhibition in vivo at 25 mg/kg", "setting": "rat pleural cavity; [4]", "value": "< 10", "unit": "%"}
    ]},
    {"compound": "O=c1c(Cn2cncn2)cc2ccc(Cl)cc2n1-c1ccccc1", "note": "[Formula 55, 1-phenyl-7-chloro-3-(1H-1,2,4-triazol-1-ylmethyl)-2(1H)-quinolone]", "values": [
      {"measurement": "inhibition in vivo at 25 mg/kg", "setting": "rat pleural cavity; [3]", "value": "< 10", "unit": "%"},
      {"measurement": "inhibition in vivo at 25 mg/kg", "setting": "rat pleural cavity; [4]", "value": "< 10", "unit": "%"}
    ]},
    {"compound": "CC(=O)N1CCN(Cc2cc3ccccc3n(-c3ccccc3)c2=O)CC1", "note": "[Formula 59]", "values": [
      {"measurement": "inhibition in vivo at 25 mg/kg", "setting": "rat pleural cavity; [3]", "value": 68, "unit": "%"},
      {"measurement": "inhibition in vivo at 25 mg/kg", "setting": "rat pleural cavity; [4]", "value": 68, "unit": "%"}
    ]},
    {"compound": "O=c1c(Cn2cccn2)cc2ccccc2n1-c1ccccc1", "note": "[Formula 57]", "values": [
      {"measurement": "inhibition in vivo at 25 mg/kg", "setting": "rat pleural cavity; [3]", "value": 20, "unit": "%"},
      {"measurement": "inhibition in vivo at 25 mg/kg", "setting": "rat pleural cavity; [4]", "value": 19, "unit": "%"}
    ]},
    {"compound": "O=c1c(Cn2cncn2)cc2cc(Br)ccc2n1-c1ccccc1", "note": "[Formula 54, 6-bromo-1-phenyl-3-(1H-1,2,4-triazol-1-ylmethyl)-2(1H)-quinolone]", "values": [
      {"measurement": "inhibition in vivo at 25 mg/kg", "setting": "rat pleural cavity; [3]", "value": "< 10", "unit": "%"},
      {"measurement": "inhibition in vivo at 25 mg/kg", "setting": "rat pleural cavity; [4]", "value": "< 10", "unit": "%"}
    ]},
    {"compound": "O=c1c(Cn2cncn2)cc2ccccc2n1-c1cccc(Cl)c1", "note": "[Formula 56, (1-3-Chlorophenyl)-3-(1H-1,2,4-Triazol-1-ylmethyl)-2(1H)-Quinolone]", "values": [
      {"measurement": "inhibition in vivo at 5 mg/kg", "setting": "rat pleural cavity; [3]", "value": 56, "unit": "%"},
      {"measurement": "inhibition in vivo at 5 mg/kg", "setting": "rat pleural cavity; [4]", "value": 63, "unit": "%"}
    ]},
    {"compound": "O=c1c(Cn2cncn2)cc2ccccc2n1Cc1ccccc1", "note": "[Formula 52]", "values": [
      {"measurement": "inhibition in vivo at 25 mg/kg", "setting": "rat pleural cavity; [3]", "value": 44, "unit": "%"},
      {"measurement": "inhibition in vivo at 25 mg/kg", "setting": "rat pleural cavity; [4]", "value": 46, "unit": "%"}
    ]},
    {"compound": "O=c1c(CCn2ccnc2)cc2ccccc2n1-c1ccccc1", "note": "[Formula 49]", "values": [
      {"measurement": "inhibition in vivo at 25 mg/kg", "setting": "rat pleural cavity; [3]", "value": 86, "unit": "%"},
      {"measurement": "inhibition in vivo at 25 mg/kg", "setting": "rat pleural cavity; [4]", "value": 53, "unit": "%"}
    ]},
    {"compound": "Cn1ccnc1SCc1cc2ccccc2n(-c2ccccc2)c1=O", "note": "[Formula 48, 1-Phenyl-3-(1-Methyl-1H-imidazol-2-ylthiomethyl)-2(1H)-quinolone]", "values": [
      {"measurement": "% Inhibition TXB2", "setting": "TXB2 (Thromboxane B2)", "value": 67, "unit": "%"},
      {"measurement": "inhibition in vivo at 25 mg/kg", "setting": "rat pleural cavity; [3]", "value": 75, "unit": "%"},
      {"measurement": "inhibition in vivo at 25 mg/kg", "setting": "rat pleural cavity; [4]", "value": 40, "unit": "%"},
      {"measurement": "% Inhibition LTE4", "setting": "LTE4 (Leukotriene E4)", "value": 57, "unit": "%"}
    ]},
    {"compound": "O=c1c(Cn2cncn2)cc2ccccc2n1-c1ccccc1", "note": "[Formula 2]", "values": [
      {"measurement": "inhibition in vivo at 5 mg/kg", "setting": "rat pleural cavity; [3]", "value": 64, "unit": "%"},
      {"measurement": "inhibition in vivo at 5 mg/kg", "setting": "rat pleural cavity; [4]", "value": 42, "unit": "%"},
      {"measurement": "inhibition at 30 µM", "setting": "[1]", "value": 83, "unit": "%"}
    ]}
  ]
}
